According to publication PMC2850566 (Biochemical pharmacology, 2010):
Where two headings read alike, the source gives them in different places.

Key:
rat cardiomyocyte [1] = settings: read-out: EC50cardio; rat cardiomyocyte contractility; cited from earlier work
β2-AR = settings: cardiomyocytes; cited from earlier work
human β2-AR = human β2-AR (Homo sapiens, UniProt P07550); settings: plotted from previously reported ΔH° and TΔS°; cited from earlier work
rat cardiomyocyte [2] = assay: Rat cardiomyocyte contractility model; assay type: cell-based; settings: read-out: EC50cardio, authors' unpublished data

human β2-AR, sequence (P07550 whole entry): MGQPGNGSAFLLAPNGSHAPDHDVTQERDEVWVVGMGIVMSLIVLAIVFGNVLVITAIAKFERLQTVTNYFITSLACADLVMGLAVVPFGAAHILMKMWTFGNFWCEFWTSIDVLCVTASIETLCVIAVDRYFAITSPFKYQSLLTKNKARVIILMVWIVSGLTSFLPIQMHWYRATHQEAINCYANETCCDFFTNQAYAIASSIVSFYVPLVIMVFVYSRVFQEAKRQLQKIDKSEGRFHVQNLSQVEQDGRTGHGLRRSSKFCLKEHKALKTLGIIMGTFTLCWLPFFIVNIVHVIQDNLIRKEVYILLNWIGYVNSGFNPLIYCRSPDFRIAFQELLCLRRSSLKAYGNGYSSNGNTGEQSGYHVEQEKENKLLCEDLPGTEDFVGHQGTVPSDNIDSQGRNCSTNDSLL

## C[C@H](Cc1ccc(O)cc1)NC[C@@H](O)c1cc(O)cc(O)c1 [(S,R')-fenoterol]
Rat cardiomyocyte [1]
  EC50: 2340 nM
β2-AR
  β2-AR coupling preference for G-proteins: activates both Gs and Gi proteins

## CC(Cc1ccc(O)cc1)NCC(O)c1cc(O)cc(O)c1 (racemic) [rac-fenoterol]
Human β2-AR
  Quadrant in the TΔS° and ΔH° plot: enthalpy-entropy driven process

## CC(Cc1ccc(O)cc1)NCC(O)c1cc(O)cc(O)c1 [(S,S')-fenoterol]
Rat cardiomyocyte [2]
  EC50: 55000 nM

## C[C@@H](Cc1ccc(O)cc1)NC[C@H](O)c1cc(O)cc(O)c1 [(R,S')-fenoterol]
Rat cardiomyocyte [1]
  EC50: 575 nM

## CC(Cc1ccc(O)cc1)NCC(O)c1cc(O)cc(O)c1 [(R,R')-fenoterol]
Rat cardiomyocyte [1]
  EC50: 73 nM
β2-AR
  β2-AR coupling preference for G-proteins: preferentially activates Gs signaling
